Assay results taken from US8906828B2, “Compositions and methods for post emergent weed control with clethodim and gibberellic acid” (Valent U.S.A. Corporation, priority 2012, dated 2014).

Legend:
Johnsongrass = assay: Post emergent treatment of plots with abundant Johnsongrass growth, % control (Example 1); assay type: in vivo, Sorghum halepense
Description: In order to determine the efficacy of combinations of clethodim and GA3, numerous treatments were applied to plots in an area with abundant Johnsongrass growth.
The percent control of Johnsongrass plants was evaluated at 7, 18 and 28 days following the treatment. Effect of Clethodim and GA3 Treatments on Johnsongrass (% control).”
The percent control refers to the amount of dead tissue on the plants present. It would be dead plants plus desiccated foliage on partially killed plants.

[1] = tested on: Glyphosate resistant corn; assay: Clethodim and GA3 treatments on planted glyphosate resistant corn, % control (Example 2); assay type: in vivo
Description: A further study was performed in order to confirm the effect clethodim and GA3 treatments have on corn. Glyphosate resistant corn was planted with a conventional four-row planter. Treatments were applied 28 days after the plantings.
The percent corn control was evaluated at […] days following the treatments. Effect of Clethodim and GA3 Treatments on corn (% control).

CCSC(C)CC1CC(=O)C(C(CC)=NOC/C=C/Cl)=C(O)C1 (centres unmarked) [Clethodim, 2-[1-[[[(2E)-3-chloro-2-propen-1-yl]oxy]imino]propyl]-5-[2-(ethylthio)propyl]-3-hydroxy-2-cyclohexen-1-one]
Johnsongrass % control 7 DAT (Johnsongrass; Clethodim 32 x g ai/a (9 fl oz/a of Selectmax), 0.25% v/v non-ionic surfactant and 2.5 lb/acre AMS, 7 DAT): 37.21% | Johnsongrass % control 18 DAT (Johnsongrass; Clethodim 32 x g ai/a (9 fl oz/a of Selectmax), 0.25% v/v non-ionic surfactant and 2.5 lb/acre AMS, 18 DAT): 85.66% | Johnsongrass % control 28 DAT (Johnsongrass; Clethodim 32 x g ai/a (9 fl oz/a of Selectmax), 0.25% v/v non-ionic surfactant and 2.5 lb/acre AMS, 28 DAT): 89.26% | Corn % control 6 DAT ([1]; Clethodim 32 gm ai/a, 0.25% v/v non-ionic surfactant and 2.5 lb/acre ammonium sulfate, 6 DAT): 48.33% | Corn % control 13 DAT ([1]; Clethodim 32 gm ai/a, 0.25% v/v non-ionic surfactant and 2.5 lb/acre ammonium sulfate, 13 DAT): 88.33% | Corn % control 29 DAT ([1]; Clethodim 32 gm ai/a, 0.25% v/v non-ionic surfactant and 2.5 lb/acre ammonium sulfate, 29 DAT): 96.00%

C=C1C[C@]23C[C@@]1(O)CC[C@H]2[C@@]12C=C[C@H](O)[C@@](C)(C(=O)O1)[C@H]2[C@@H]3C(=O)O [GA3, Gibberellic acid]
Effect of GA3 on the activity of clethodim on Johnsongrass (Johnsongrass; seven days following treatment, versus clethodim alone): more than doubles | Effect of GA3 on the activity of clethodim on corn ([1]; presence of GA3): significantly increased
